3 molecules from patent publication EP0362382A1, “METHOD OF STERILIZING PLANT POLLEN” (VSESOJUZNY NAUCHNO-ISSLEDOVATELSKY INST. SELSKOKHOZYAISTV. …, priority 1988, dated 1989) can be followed below.

Bounds are passed on as bounds.

The test system of series [1] is Sonnenblume. As to the kind of experiment: Field test of chemical sterilisation of sunflower pollen. It is filed as in vivo. As to conditions: Linie BK-364 (WK-364); V. Periode der Organogenese; Beispiel 80: 2%ige, 81: 0,2%ige Emulsion. The text has this:
Die gametozide Aktivitat der erfindungsgemäßen Sterilisationsmittel war im Feldversuch in verschiedenen bodenklimatischen Zonen mit Teilstücken von 10 m^2 Größe in drei- bis viermaliger Wiederholung festgestellt. Jedes Sterilisationsmittel wurde mindenstens 5 Jahre lang geprüft.
Die Entwicklung der Perioden der Organogenese wird zytologisch überwacht. Die Behandlung von Pflanzen mit dem Sterilisationsmittel erfolgt am Anfang der fünften Periode der Organogenese nach Kupermann.
Zur Kontrolle der chemischen Sterilisation des Sonnenblumenpollens werden für jede Verbindung 45 behandelte Pflanzen jeder Wiederholung benutzt, wobei 15 Pflanzen von denen zwecks Selbsbestäubung isoliert werden, Blütenkorbchen anderer 15 Pflanzen mit einem Pollengemisch, gesammelt von 20 bis 25 behandelten isolierten Körbchen, bestäubt werden, und 15 Pflanzen für freie Bestäubung gelassen werden, damit das Ansetzen von Achänen mit dem Pollen der väterlichen Form kontrolliert werden kann.
Man beurteilt die Pollensterilität von Pflanzen der Sonnenblume nach der Pollenfertilität und -keimfähigkeit, nach den morphologischen Besonderheiten von Spermien und nach der Fähigkeit von Achänen zum Ansetzen bei der Bestäubung der behandelten isolierten Pflanzen mit dem Pollen der unbehandelten väterlichen Form. Die Lebensfähigkeit der Eizelle wird nach der Samenbildung von behandelten Pflanzen bei freier Bestäubung mit der väterlichen Form bestimmt.
Man behandelt die Sonnenblume Sorte BHNNMK 8931 (WNIIMK 8931) in der V. Periode der Organogenese mit 0,5%iger wäßriger Emulsion von 4-Karboxybutyldezylsulfid, mit 1%iger Emulsion der δ, δ' -Sulfonyldivaleriansäure, 2%iger Emulsion von Bis(2-äthylhexyläther) der δ, δ' -Thiodivaleriansäure; die Sonnenblume der Linie BK-373 (WK-373) mit 2%iger Emulsion von Bis(2-äthylhexyläther) der δ δ' --Thiodivaleriansäure, mit 0,2%iger Emulsion von Bis(di--n-butyläther) der δ, δ' -Thiodivaleriansäure; die Sonnenblume der Linie BK=364 (WK-365) mit 2%iger wäßriger Emulsion von Bis(2-äthylhexyläther) der δ, δ' -Thirodivaleriansäure, mit 0,2%iger Emulsion von Bis(di-n-butyläther) der δ, δ' -Thiodivaleriansäure. Die Emulsion enthält 0,1 Masse% Kalziumalkylbenzolsulfonat mit 12 bis 14 Kohlenstoffatomen und 0,01 Masse% Dimethylsulfoxid. Als Kontrolle dienen Pflanzen, behandelt mit einem Verdünner ohne Sterilisationsmittel. Die Prüfergebnisse sind in der Tabelle 17 angegeben. […] Periode der Organogenese erhalten.

Series [2] is described as follows: Toxicity in animal test. As to conditions: rat, in vivo; für Ratten. As to the method: Alle erfindungsgemäßen Thiokarbonsäuren oder ihre De- rivate, die als Sterilisationsmittel zur Verwendung kommen, waren auf die Toxizität im Tierversuch geprüft. Die Prüfergebnisse haben gezeigt, daß die angegebenen Verbindungen von schwacher oder mittlerer Toxizität sind. So beträgt beispielsweise LD50 mehr als 2000 mg/kg für Ratten bei Bis (2-äthylhexyläther) der δ, δ'-Thiodivaleriansäure, bei anderen Verbindungen liegen die LD50 -Werte auf dem gleichen Niveau.

`CCCCC(CC)COC(=O)CCCCSCCCCC(=O)OCC(CC)CCCC` (centres unmarked) [Beispiel 80, Bis(2-äthylhexyläther) der δ, δ' -Thirodivaleriansäure]: in series [1], the “Prozentsatz der Sterilität” value is listed as 100,0% and the “Prozentsatz des Ansetzens von Achänen bei freier Bestäubung” value was 67,9%.
On to `CCCCOC(=O)CCCCSCCCCC(=O)OCCCC` [Beispiel 81, Bis(di-n-butyläther) der δ, δ' -Thiodivaleriansäure], for which, in series [1], the “Prozentsatz der Sterilität” value was 100,0% and the “Prozentsatz des Ansetzens von Achänen bei freier Bestäubung” value is listed as 59,3%.
Consider `CCCCC(CC)COC(=O)CCCCSCCCCC(=O)OCC(CC)CCCC` (centres unmarked) [Bis (2-äthylhexyläther) der δ, δ'-Thiodivaleriansäure], for which, in series [2], the LD50 was more than 2000 mg/kg.
